# Reference: patent US7557110B2, “Pyrazolo[1,5-A] pyrimidine derivatives” (Teijin Pharma Limited, priority 2003, dated 2009)
# Where two headings read alike, the source gives them in different places.
# Key:
# MAPKAP-K2 = MAPKAP-K2 (Homo sapiens, UniProt P49137); test: MAPKAP-K2 enzyme activity inhibition (33P-ATP filter plate kinase assay); format: biochemical; conditions: MAPKAP-K2 inhibitory activity; assays conducted at typically 1-100 μM; note: key: +: active; ++: more active; +++: very active
# CDK-2 = CDK-2 (Homo sapiens, UniProt P24941); test: CDK-2 enzyme activity inhibition (33P-ATP filter plate kinase assay); format: biochemical
# Text: [General Procedure for Measurement of CDK-2 Enzyme Activity Inhibition]
# CDK-1 = CDK-1 (Homo sapiens, UniProt P06493); test: CDK-1 enzyme activity inhibition (33P-ATP filter plate kinase assay)
# Protocol: [General Procedure for Measurement of CDK-1 Enzyme Activity Inhibition]
# Compounds were dissolved in DMSO at a concentration of 10 mM and stored in aliquots at −20° C. Compounds in DMSO from these stock aliquots were diluted in DMSO to produce the required range of 30× stock solutions. These stock solutions were then subjected to 1:3 dilutions in order to prepare the required range of 10× stock solutions and 5 μL of each solution was used per 50 μL reaction.
# The kinase reaction was conducted in a round-bottomed polypropylene 96-well plate. CDK-1 was diluted to 0.5 U/μL in diluent buffer (50 mM Tris/HCl. pH7.5, 0.1 mM EGTA, 0.1% (v/v) β-mercaptoethanol, 1 mg/mL BSA). 5 μL compound or 30% DMSO was added to each well followed by 25 μL substrate cocktail (final concentration: 10 μM ATP, 50 μM peptide ([sequence]), 0.5 μCi ^33P-γ-ATP in 50 mM Tris-HCl (pH 7.5), 1 mM EGTA, 2 mM DTT, 10 mM MgCl2, 0.01% Brij-35). The reaction was initiated with the addition of 20 μL enzyme solution per well or 20 μL of diluent buffer without enzyme. The plate was shaken for 10 seconds and then left at room temperature for 15 minutes. The reaction was terminated with 50 μL 150 mM phosphoric acid. 90 μL of the reaction mixture was then transferred into a 96-well P81 filter plate (Whatmann) and incubated at room temperature for 5 minutes. The filter plate was then washed 4 times with 200 μL 75 mM phosphoric acid per well on a plate vacuum manifold (Millipore) and dried in an oven for 2-3 hours. Packard MicroScint ‘0’ (30 μL) was then added to each well, the plate was miffed for 30 minutes and subjected to liquid scintillation counting on a Packard TopCount.
# [1] = read-out: CDK-2 inhibition IC50
# Chain of CDK-1 (P06493 whole entry, species assumed): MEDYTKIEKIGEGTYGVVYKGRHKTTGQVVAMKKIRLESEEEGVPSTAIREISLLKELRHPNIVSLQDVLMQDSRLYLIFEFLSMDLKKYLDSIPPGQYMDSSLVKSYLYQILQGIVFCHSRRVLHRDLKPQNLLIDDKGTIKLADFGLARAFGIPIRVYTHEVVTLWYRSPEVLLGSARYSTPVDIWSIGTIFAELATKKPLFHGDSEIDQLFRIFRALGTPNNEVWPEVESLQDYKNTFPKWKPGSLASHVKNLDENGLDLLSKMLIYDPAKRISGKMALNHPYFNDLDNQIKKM
# Chain of CDK-1 (P14635 whole entry partner, species assumed): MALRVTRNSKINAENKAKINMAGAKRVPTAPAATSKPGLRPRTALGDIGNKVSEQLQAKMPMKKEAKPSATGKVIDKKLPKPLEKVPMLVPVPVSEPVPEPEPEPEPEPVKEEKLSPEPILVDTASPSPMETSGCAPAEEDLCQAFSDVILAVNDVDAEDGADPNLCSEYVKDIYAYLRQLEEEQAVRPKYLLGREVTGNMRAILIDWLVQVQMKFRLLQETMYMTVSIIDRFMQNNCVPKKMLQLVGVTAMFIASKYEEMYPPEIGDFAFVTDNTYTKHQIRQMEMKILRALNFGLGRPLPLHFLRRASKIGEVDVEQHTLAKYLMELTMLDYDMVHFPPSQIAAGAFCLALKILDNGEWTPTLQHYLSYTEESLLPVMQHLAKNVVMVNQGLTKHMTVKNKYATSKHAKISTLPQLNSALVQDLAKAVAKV
# Chain of MAPKAP-K2 (P49137 whole entry): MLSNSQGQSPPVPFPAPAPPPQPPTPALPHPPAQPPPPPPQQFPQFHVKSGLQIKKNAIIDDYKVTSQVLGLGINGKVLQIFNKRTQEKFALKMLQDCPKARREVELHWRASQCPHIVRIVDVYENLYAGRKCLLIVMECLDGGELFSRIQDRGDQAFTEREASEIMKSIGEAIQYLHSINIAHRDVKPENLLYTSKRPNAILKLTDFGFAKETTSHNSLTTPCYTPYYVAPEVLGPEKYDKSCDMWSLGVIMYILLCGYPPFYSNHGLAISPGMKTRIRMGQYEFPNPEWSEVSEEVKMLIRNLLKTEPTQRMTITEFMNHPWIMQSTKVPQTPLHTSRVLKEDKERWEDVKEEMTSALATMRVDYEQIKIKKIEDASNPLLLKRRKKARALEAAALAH
activity (efficacy against MAPKAP-K2) (MAPKAP-K2),IC50 (CDK-2),IC50 (CDK-1),melting point,IC50 (CDK-2; [1]),Structure (SMILES)
++,< 100 µM,< 100 µM,–,–,N[C@H]1CC[C@H](Nc2cc(Nc3ccc(F)c(Cl)c3)n3ncc(Br)c3n2)CC1 [Compound 2]
–,–,< 100 µM,221 to 223 °C,–,CCOC(=O)c1cnn2c(Nc3ccc(F)c(Cl)c3)cc(N[C@H]3CC[C@H](N)CC3)nc12 [Compound 9]
+++,< 100 µM,< 100 µM,–,–,Cc1c(N[C@H]2CC[C@H](N)CC2)nc2ccnn2c1Nc1ccc(F)c(Cl)c1 [Compound 10]
+++,< 100 µM,< 100 µM,–,–,CCCc1c(N[C@H]2CC[C@H](N)CC2)nc2ccnn2c1Nc1ccc(F)c(Cl)c1 [Compound 11]
+++,< 100 µM,< 100 µM,–,–,NC1CCC(Nc2nc3ccnn3c(Nc3ccc(F)c(Cl)c3)c2-c2ccccc2)CC1 (stereo not shown) [Compound 12]
+++,< 100 µM,< 100 µM,–,–,Cc1c(N[C@H]2CC[C@H](N)CC2)nc2ccnn2c1Nc1ccccc1Cl [Compound 15]
+++,< 100 µM,< 100 µM,–,–,CCc1c(N[C@H]2CC[C@H](N)CC2)nc2ccnn2c1Nc1ccccc1Cl [Compound 16]
+++,–,< 100 µM,153 to 155 °C,–,C=CCc1c(N[C@H]2CC[C@H](N)CC2)nc2ccnn2c1Nc1ccccc1Cl [Compound 17]
+++,–,< 100 µM,176 to 178 °C,–,C=CCc1c(N[C@H]2CC[C@H](N)CC2)nc2ccnn2c1Nc1ccc(F)c(Cl)c1 [Compound 19]
+++,< 100 µM,< 100 µM,–,–,CCc1c(N[C@H]2CC[C@H](N)CC2)nc2ccnn2c1Nc1ccc(F)c(Cl)c1 [Compound 23]
+++,–,< 100 µM,–,–,N[C@H]1CC[C@H](Nc2nc3ccnn3c(Nc3ccc(F)c(Cl)c3)c2Cc2ccccc2)CC1 [Compound 24]
+++,–,< 100 µM,–,–,CCc1c(N[C@H]2CC[C@H](N)CC2)nc2ccnn2c1Nc1ccc(Cl)cc1 [Compound 26]
+++,–,< 100 µM,–,< 100 µM,CCc1c(N[C@H]2CC[C@H](N)CC2)nc2ccnn2c1Nc1ccc(OC)cc1 [Compound 28]
+++,–,< 100 µM,176 to 178 °C,–,CCc1c(N[C@H]2CC[C@H](N)CC2)nc2ccnn2c1Nc1ccccc1C [Compound 29]
+++,–,< 100 µM,–,–,CCc1c(N[C@H]2CC[C@H](N)CC2)nc2ccnn2c1Nc1ccc(C)c(C)c1 [Compound 30]
+++,–,< 100 µM,131 to 133 °C,< 100 µM,CCOc1ccc(Nc2c(CC)c(N[C@H]3CC[C@H](N)CC3)nc3ccnn23)cc1 [Compound 31]
+++,–,< 100 µM,–,< 100 µM,CCOc1ccc(Nc2c(C)c(N[C@H]3CC[C@H](N)CC3)nc3ccnn23)cc1 [Compound 32]
+++,–,< 100 µM,147 to 149 °C,–,CCc1c(N[C@H]2CC[C@H](N)CC2)nc2ccnn2c1Nc1ccc(Oc2ccccc2)cc1 [Compound 33]
+++,–,< 100 µM,120 to 122 °C,< 100 µM,CCc1c(N[C@H]2CC[C@H](N)CC2)nc2ccnn2c1Nc1ccc(OCc2ccccc2)cc1 [Compound 35]
+++,–,< 100 µM,190 to 192 °C,–,CCc1c(N[C@H]2CC[C@H](N)CC2)nc2ccnn2c1Nc1ccc(SC)cc1 [Compound 36]
+++,–,–,210 to 215 °C,< 100 µM,Cc1c(N[C@H]2CC[C@H](N)CC2)nc2ccnn2c1Nc1ccc(-n2ccnc2)cc1 [Compound 118]
+++,–,–,68 to 72 °C,< 100 µM,Cc1c(N[C@H]2CC[C@H](N)CC2)nc2ccnn2c1Nc1ccc2c(c1)OCCO2 [Compound 126]
+++,–,–,58 to 66 °C,< 100 µM,Cc1c(N[C@H]2CC[C@H](N)CC2)nc2ccnn2c1Nc1ccc(N2CCCCC2)cc1 [Compound 129]
++,–,–,206 to 210 °C,< 100 µM,CCc1c(N[C@H]2CC[C@H](N)CC2)nc2ccnn2c1Nc1cccc(C(N)=O)c1 [Compound 151]
+++,–,–,210 to 215 °C,< 100 µM,Cc1nc2ccc(Nc3c(C)c(N[C@H]4CC[C@H](N)CC4)nc4ccnn34)cc2s1 [Compound 155]
+++,–,–,184 to 187 °C,< 100 µM,CCc1c(N[C@H]2CC[C@H](N)CC2)nc2ccnn2c1Nc1ccc(Br)cc1 [Compound 159]
++,–,–,104 to 106 °C,< 100 µM,CCc1c(N[C@H]2CC[C@H](N)CC2)nc2ccnn2c1Nc1ccc(I)cc1 [Compound 168]
